Data set [1] deals with HSV-2. In words: activity selectivity assay, HSV-2 infected Vero cells. It counts as cell-based, Herpes simplex virus. Conditions: Human alphaherpesvirus 2. The procedure:
(§1) HSV (HSV-1 Walki, HSV-1F, HSV-2 MS, HSV clinical isolates and HSV resistant strains) was cultivated on Vero cells (ATCC CCL-81) under the following conditions: The cells were grown in M199 medium (5% foetal calf serum, 2 mM glutamine, 100 IU/mL penicillin, 100 μg/mL streptomycin) in cell culture bottles at 37° C. and 5% CO2. The cells were splitted twice per week (1:4). For the infection, the medium was removed, the cells were washed with Hank's solution, detached using 0.05% trypsin, 0.02% EDTA and incubacted at a density of 4×10^5 cells/mL under the above-mentioned conditions for 24 h. The medium was removed and the virus solution was added at an m.o.i of <0.05 in a volume of 2 mL per 175 cm^2 surface. The infected cells were incubated at 37° C., 5% CO2 for 1 h and then the medium was made up to a volume of 50 mL per 175 cm^2 bottle. […] The virus was released by freezing (−80° C.) and thawing (37° C.) the infected cultures twice. Cell debris was removed by centrifugation (300 g, 10 min, 4° C.) and the supernatant was frozen in aliquots at −80° C.
(§2) The antiviral action was determined using a patented (DE10235967 and WO2004/015416) and subsequently published activity selectivity assay (G. Kleymann et al. J. Biomol. Screen. 2004; 9:578) in 96- or 384-well mictrotitre plates using various cell lines of neuronal, lymphoid and epithelial origin, such as, for example, Vero (african green monkey kidney cells), MEF (murine embryonal fibroblasts), HELF (human embryonal fibroblasts), NT2 (human neuronal cell line) or Jurkat (human lymphoid T-cell line). The relevant experimental details of the above mentioned patent and publication to evaluate the antiviral activity of the invention (disclosed compounds) are described below.
(§3) The effect of the substances on the spreading of the cytopathogenic effect was determined in comparison to the reference compound acyclovir-sodium (Zovirax™), a clinically approved anti-herpes chemotherapeutic.
(§4) The compounds (50 mM stock solution dissolved in DMSO) are examined on microtitre plates (for example 96-well flat bottom cell culture plates) at a final concentration of 250 to 0.5 μM or, in case of potent antiviral compounds, 250 to 0.5 nM in 2 to 4 replications (4 to 2 substances per plate). Also examined are toxic and cytostatic effects or precipitation of the compounds. After an appropriate dilution of the compounds (1:2) on the microtitre plate in the appropriate medium (100 μL), a suspension of cells (50 μL, 1×10^4 cells per well), such as, for example of Vero cells in M199 (medium 199 with 5% foetal calf serum, 2 mM glutamine and optionally 100 IU/ml penicillin and 100 μg/ml streptomycin) or of MEF or HELF cells in EMEM (Eagle's Minimum Essential Medium with 10% foetal calf serum, 2 mM glutamine and optionally 100 IU/mL penicillin and 100 μg/mL streptomycin), or of NT2- and Jurkat cells in DMEM (([…] glucose plus pyridoxin) with 10% foetal calf serum, 2 mM glutamine, 1 mM sodium pyruvate, non-essential amino acids and optionally 100 IU/mL penicillin and 100 μg/mL streptomycin) is added to each well and the cells in the relevant wells are infected with the appropriate amount of virus (HSV-1 or HSV-2 having an m.o.i (multiplicity of infection) of 0.0025 for Vero, HELF and MEF cells and an m.o.i. of 0.1 for NT2 and Jurkat cells). The plates are then incubated at 37° C. in a cell CO2 incubator (5% CO2) for several days. After this time, the cell lawn of, for example, Vero cells in the substance-free virus controls, starting from 25 infections centres, is completely destroyed or lysed by the cytopathogenic effect (CPE) of the Herpes viruses (100% CPE). The plates are initially evaluated visually using a microscope and then analysed using a fluorescent dye. To this end, the cell supernatant of all wells of the MTP is aspirated and the wells are filled with 250 μL PBS (phosphate buffered saline) wash solution. […]

The subject of data set [2] is HSV-1. In words: activity selectivity assay, HSV-1 infected Vero cells (cytopathogenic effect, fluorescein diacetate readout). In kind it is cell-based, Herpes simplex virus. Conditions: Human alphaherpesvirus 1. The method, then: as §1, §2, §3, §4
A general note: Cytopathic effects are the visible damage that an infection or toxin causes in cultured cells.

Data set [3] has as its system HSV-1 ACV resistant. Briefly: activity selectivity assay, ACV resistant HSV-1. It counts as cell-based, Herpes simplex virus. Conditions: Human alphaherpesvirus 1, read-out: IC50 (HSV-1 ACV resistant). The method, then: as §1, §2, §3, §4
Data set [4] in a line: aqueous solubility (PBS, pH 7.4), shake flask. It counts as physicochemical. The method, then: The aqueous solubility (PBS, pH 7.4) was determined at Eurofins, Cerep, Panlabs according to C. A. Lipinski et al. Adv. Drug Del. Rev. 1997, 46:3. Measurement of the aqueous solubility was performed according to Lipinski, C. A. et al. (1997), Adv. Drug Del. Rev., 46: 3-26. The relevant information from the literature is described below. […] In addition, chromatographic purity (%) was defined as the peak area of the principal peak relative to the total integrated peak area in the HPLC chromatogram of the calibration standard.

Data set [5] in a line: pharmacokinetics in male mice strain C57BL/6J. Conditions: mouse. It counts as in vivo. The procedure:
Pharmcokinetic parameters were determined for Example 3 in male mice strain C57BL/6J at an intraveneous (i.v.) dose of 5 mg/kg (5% DMSO in heterologous plasma, 2.5 ml/kg) and an oral dose (p.o) of 10 mg/kg (DMSO/0.5% HPMC (5:95), 5 ml/kg). […] Significant concentrations in the brain of treated mice (2-3 μM, 1000 ng compound/g brain) were detected 6 h post administration at an oral dose of 10 mg/kg.

For data set [6], the target named is Human Carboanhydrase II (Homo sapiens, UniProt P00918). In words: carbonic anhydrase activity assay (pH indicator method). In kind it is biochemical. The procedure:
Carbonic anhydrase II activity and its respective inhibition was performed according to R. Iyer et al. J. Biomol. Screen.
A protocol for determination of the carbonic anhydrase enymatic activity at rt using the pH indicator method is described below:
1 μL inhibitor (50 mM stock solution in DMSO) is diluted to a final test concentration ranging from 100 μM down to 1 nM (or 1 μL water in controls) and incubated for 2 min with 0.5 to 2 EU human […] (180 U/mg) in 400 μL water and 200 μL phenol red indicator solution (20 mg/L). An enzymactic unit (EU) is defined as an amount which doubles the non catalyzed rate. […] The time to colour change (pH 7.2) is determined with a microchronometer or stop watch.
The percentage of inhibition is calculated as described below: (time to color change without enzyme time to color change with enzyme and inhibitor)/(time to color change without enzyme time to color change with enzyme).

The test system of data set [7] is HSV-1. In words: HSV-1 intranasal infection mouse model, survival. In kind it is in vivo. The conditions noted are these: Human alphaherpesvirus 1, inhaled or nasal, 120 h; female BALB/ABom mice, intranasal HSV-1, treatment for 5 days; read-out: ED50 (dose at which 50% of the infected animals survive). The method, then: Animal experiments were performed according to patent WO2001/047904 or subsequent publications (U. A. K. Betz et al. Antimicrob. Agents Chemother. 2002; 46:1766 or G. Kleymann et al. Nat. Med. 2002; 8:392). The relevant experimental details of the above mentioned patent and publication to evaluate the antiviral activity of the invention (disclosed compounds) in-vivo (animal models) are described below.
6 week-old female mice, BALB/ABom strain were obtained from a commercial breeder.
The animals were anaesthetized with Et2O in a sealed glass vessel. 50 μL of a dilution of the virus stock (infection dose 5×10^4 PFU (Plaque forming units)) were introduced into the nose of the anaesthetized animals using a pipette. In 90 to 100% of the animals, this infection dose causes death by generalized infection with prominent respiratory and central-nervous symptoms on average after 5 to 8 days.
6 hours after infection animals were treated with doses of 0.1-150 mg/kg of body mass, 3 times per day at 7 am, 2 pm and 7 pm (tid) or 2 times per day at 7 am and 7 pm (bid) or once daily at 1 pm (od) for a period of 5 days. […] After the last administration, the animals were monitored further and the time of death was determined.

Converted amounts (≈) assume the structure as drawn. “And” between values parts separate entries of the source, which are not always exact repeats. Equal values may be shown once.

By IC50 is commonly meant the concentration at which inhibition is half-maximal. For the compound `Nc1nc2c(ncn2COCCO)c(=O)[nH]1` [Acyclovir, reference compound], the IC50 was 500 to 3000 nM in data set [1], 500 to 3000 nM in data set [2] and greater than 25000 nM in data set [3].

As a reminder, the bioavailability is the share of a dose that reaches the circulation, judged against a reference dose that is usually intravenous. A low value points to little systemic uptake. The term Tmax denotes the time at which the peak concentration occurs. Usually half-life stands for how long it takes for the measured level to halve. By ED50 is commonly meant the dose that gives a 50% effect, or the effect in half of the subjects. In the case of `Cc1nc(N(C)C(=O)Cc2ccc(-c3cc(F)ccc3F)cc2)sc1S(=N)(N)=O` (stereo not shown) [Example 3, 2-(2′,5′-Difluoro-[1,1′-biphenyl]-4-yl)-N-methyl-N-(4-methyl-5-sulfamimidoylthiazol-2-yl)acetamide], in data set [4] (PBS buffer, aqueous buffer, kinetic from dmso stock, pH 7.4, shake flask, 24 h incubation, RT, read-out: Solubility [μM] (PBS, pH 7.4, 200 μM Test concentration)), the solubility at 24 h came to 16.2 µM (≈ 7.07 µg/mL). For the same compound, in data set [4] (pH 7.4), the “solubility in comparison to Example 87 (WO2001/047904)” value is “significantly increased solubility (at least one order of magnitude)”. Also, in data set [5] (male, C57BL/6J, brain, mice, 6 h post administration, oral dose of 10 mg/kg), the concentration at 6 h was 2 µM to 3 µM and 1000 ng/g. Besides, in data set [5] (plasma, oral, male C57BL/6J mice, 10 mg/kg p.o. vs 5 mg/kg i.v.), the bioavailability came out at 94%. Also, the Tmax in data set [5] (plasma, po, male C57BL/6J mice, 10 mg/kg p.o.) amounted to 1 h. The Cmax in data set [5] (plasma, po, male C57BL/6J mice, 10 mg/kg p.o., read-out: maximal plasma concentration (cmax)) was found to be 13.9 µM. The half-life in data set [5] (plasma, male C57BL/6J mice, oral dose of 10 mg/kg, read-out: terminal half life (converted)) was roughly 3.5 h. In addition, the IC50 in data set [1] was 5 to 50 nM; in data set [6], greater than 5 µM; in data set [2], 5 to 50 nM; in data set [3], 5 to 50 nM. For the same compound, the “carboanhydrase inhibition (IC50)” value in data set [6] (text statement before Table 2) is listed as “no or reduced carbonic anhydrase inhibition”. For the same compound, the ED50 in data set [7] is less than 10 mg/kg.

In the case of `Cc1nc(N(C)C(=O)Cc2ccc(-c3ccccn3)cc2)sc1S(=N)(N)=O` (stereo not shown) [Example 3-1, N-methyl-N-(4-methyl-5-sulfamimdoylthiazol-2-yl)-2-(4-(pyridin-2-yl)phenyl)acetamide], the half-inhibitory concentration (IC50) in data set [1], in data set [2] and in data set [3] was 5 to 50 nM each time.

For `Cc1nc(N(C)C(=O)Cc2ccc(-c3cc(F)ccc3F)cc2)sc1[S+](C)[O-]` (stereo not shown) [Example 4, 2-(2′,5′-Difluoro-[1,1′-biphenyl]-4-yl)-N-methyl-N-(4-methyl-5-(methylsulfinyl)thiazol-2-yl)acetamide], the 50% inhibitory concentration (IC50) in data set [1], in data set [2] and in data set [3] was 100 to 500 nM each time.

Consider `Cc1nc(N(C)C(=O)Cc2ccc(-c3cc(F)ccc3F)cc2)sc1S(C)(=N)=O` (stereo not shown) [Example 7, 2-(2′,5′-Difluoro-[1,1′-biphenyl]-4-yl)-N-methyl-N-(4-methyl-5-(S-methylsulfonimidoyl)thiazol-2-yl)acetamide], for which the IC50 in data set [1], in data set [2] and in data set [3] was 25 to 100 nM each time.

Regarding `Cc1nc(N(C)C(=O)Cc2ccc(-c3cc(F)ccc3F)cc2)sc1P(=O)(O)O` [Example 9, (2-(2-(2′,5′-Difluoro-[1,1′-biphenyl]-4-yl)-N-methylacetamido)-4-methylthiazol-5-yl)phosphonic acid], the half-inhibitory concentration (IC50) in data set [1], in data set [2] and in data set [3] was 25000 to 100000 nM in each case.

For the compound `Cc1nc(N(C)C(=O)Cc2ccc(-c3cc(F)ccc3F)cc2)sc1S(=O)(=O)NC#N` [Example 12, N-(5-(N-Cyanosulfamoyl)-4-methylthiazol-2-yl)-2-(2′,5′-difluoro-[1,1-biphenyl]-4-yl)-N-methylacetamide], the concentration for half-maximal inhibition (IC50) in data set [1], in data set [2] and in data set [3] was 100 to 1000 nM in each case.

For the compound `Cc1nc(N(C)C(=O)Cc2ccc(-c3cc(F)ccc3F)cc2)sc1/S(C)=N\C#N` (stereo not shown) [Example 13, N-[5-(N-Cyano-S-methyl-sulfinimidoyl)-4-methyl-thiazol-2-yl]-2-[4-(2,5-difluorophenyl)phenyl]-N-methyl-acetamide], the IC50 in data set [1], in data set [2] and in data set [3] was 300 to 3000 nM throughout.

As for `Cc1nc(N(C)C(=O)Cc2ccc(-c3cc(F)ccc3F)cc2)sc1S(C)(=O)=NC#N` (stereo not shown) [Example 14, N-[5-(N-Cyano-S-methyl-sulfonimidoyl)-4-methyl-thiazol-2-yl]-2-[4-(2,5-difluorophenyl)phenyl]-N-methyl-acetamide], the IC50 in data set [1], in data set [2] and in data set [3] was 1000 to 5000 nM throughout.

In the case of `CSc1sc(N(C)C(=O)Cc2ccc(-c3cc(F)ccc3F)cc2)nc1C` [Example P4b, 2-(2′,5′-Difluoro-[1,1′-biphenyl]-4-yl)-N-methyl-N-(4-methyl-5-(methylthio)thiazol-2-yl)acetamide], the half-inhibitory concentration (IC50) in data set [1], in data set [2] and in data set [3] was 2000 to 6000 nM each time.

(Values after patent US10590094B2, “Aminothiazole derivatives useful as antiviral agents” (Innovative Molecules GmbH, priority 2016, dated 2020).)
